The values below come from patent publication US20240246968A1, “SMALL MOLECULE INHIBITORS OF KRAS G12C MUTANT” (Merck Sharp & Dohme LLC, priority 2021, published 2024).

Experiment [1] addresses Gppcp-bound recombinant K-Ras4B G12C mutant protein (amino acids 1-169, C51S/C80L/C118S) (Homo sapiens, UniProt P01116, C118S/C51S/C80L/G12C). In words: KRASG12C binding assay (LC-MS, compound binding rate). The following applies: test compound final concentration 0.5 μM, 25° C., 1 hour. The method, then: As test compounds for the KRASG12C binding assay, the compounds obtained in the “Preparation of Compounds” section were used. Sample solutions each containing a test compound were prepared in the form of a 10 mM DMSO solution.
Gppcp-bound recombinant K-Ras4B G12C mutant protein (amino acids 1-169, C51S/C80L/C118S, SEQ ID NO:1) was diluted with a buffer (1×TBS, 0.1 mM TCEP, 0.25 mM MgCl2, 50 μM Gppcp) to prepare a 50 nM protein solution. K-Ras4B is the major splicing variant of K-Ras. Amino acid sequence of residues 1 to 150 including the compounds' binding region of K-Ras4B is exactly same as that of K-Ras4A, the other splicing variant (Oncotarget. 2016 Jul. 19; 7(29): 46717-46733). A sample solution containing 10 mM test compound was diluted ten-fold with DMSO to make a 1 mM sample solution, and then diluted twenty-fold with DMSO to make a 50 μM sample solution. 1 μL of a 50 μM sample solution was added to 100 μL of a 50 nM protein solution to adjust the final concentration of a test compound to be 0.5 μM in the mixture. The mixtures were stored in an incubator at 25° C. for 1 hour, and 10 μL of a 1×TBS solution containing 2% formic acid was added to stop the reaction, followed by LC-MS measurement. LC-MS measurement was performed using Xevo G2-S Q-Tof manufactured by Waters, and reverse-phase chromatography was performed with a desalting column. A mass spectrum of positive ions was obtained by electrospray. For a mass spectrum, a spectrum of polyvalent ions was collectively converted to a molecular weight by using OpenLynx software by the MaxEnt technique, and a compound binding rate was calculated from the ratio of the signal intensity of a peak that corresponds to the molecular weight of the protein to the signal intensity of a peak that corresponds to the molecular weight of the protein conjugated with the compound.
The binding assay of the test compounds was conducted at a final concentration of 0.5 μM. A binding rate of 80% or more is rated “A”, a binding rate of 60% or more and less than 80% is rated “B”, a binding rate of 40% or more and less than 60% is rated “C”, a binding rate of 20% or more and less than 40% is rated “D”, and a binding rate of less than 20% is rated “E”. N.D.=not determined. Binding rate % is the ratio of KRAS signal intensity at the molecular weight of one molecule adduct to the sum of all the KRAS signal intensity (unbound form and adducts) in mass spectrum. Thus, binding rate 100% means that only the one molecule adduct was observed without any unbound KRAS. The following tables show the results.

The target in experiment [2] is T1, interaction between recombinant K-Ras4B G12C mutant protein and cRAF RAS-binding domain (cRAF-RBD) (Homo sapiens, UniProt P01116, G12C).
T1 construct: made in house; host or cells: E. coli
The experiment can be described thus: Inhibitory activity on interaction between KRAS G12C and cRAF (Alpha technology). The experiment is classed as biochemical. To be noted: GMPPNP-bound KRAS G12C incubated with compound at 25° C. for 1 hour, then cRAF-RBD; Alpha signal. The protocol: Interaction between recombinant K-Ras4B G12C mutant protein (amino acids 1-169, SEQ ID NO:2) and cRAF RAS-binding domain (cRAF-RBD, amino acids 50-132, Jena Biosciences GmbH) was measured using Alpha technology (PerkinElmer Inc.).
Recombinant KRAS G12C protein with an N-terminal His-tag was expressed in E. coli and purified by affinity chromatography. To prepare GTP-bound form and GDP-bound form of KRAS G12C protein. 50 μM KRAS G12C protein was incubated with 1 mM GMPPNP (Guanosine-5′-[(β,γ)-imido]triphosphate. Tetralithium salt)(Jena Bioscience GmbH) and 1 mM GDP, respectively, in a loading buffer (20 mM Tris-HCl (pH 7.5), 50 mM NaCl, 1 mM DTT and 2.5 mM EDTA) for 1 hour on ice. After the incubation, MgCl2 was added to a final concentration of 10 mM, followed by incubation at room temperature for 30 minutes. The mixture was allowed to pass through a NAP-5 column to remove free nucleotides and purified, and the resultant nucleotide-bound KRAS G12C protein was used for compound evaluation.
For the measurement of the inhibitory activity of compounds on interaction between KRAS G12C and cRAF-RBD, GMPPNP-bound KRAS G12C protein was incubated with various concentrations of compound in a reaction buffer (20 mM Tris-HCl (pH 7.5), 100 mM NaCl, 1 mM MgCl2, 1 mM TCEP. 0.1% Tween 20) at 25° C. for 1 hour. After the incubation, recombinant cRAF-RBD and Alpha detection reagents were added and incubated at room temperature for 1.5 hours for binding. Interaction of KRAS G12C and cRAF-RBD was monitored by measuring Alpha signal. Inhibition % was calculated using the signal from the reaction without test compound (DMSO control) as 0% inhibition and the signal from the reaction using GDP-bound KRAS G12C in place of GMPPNP-bound KRAS G12C as 100% inhibition. IC50 values were calculated from dose titration curve using curve fitting by XLfit software (IDBS). The following tables show the results.

For a further experiment, the system named is MIA PaCa-2 cells. In words: Growth inhibition activity on KRAS-G12C mutant cell line (MIA PaCa-2), CellTiter-Glo 3D. The experiment is classed as cell-based, human. The following applies: MIA PaCa-2, 3-day culture with compound. The protocol: MIA PaCa-2 cells (given by Sumitomo Dainippon Pharma Co., Ltd.), which are a KRAS-G12C mutant human pancreas cancer cell line, were suspended in a 10% fetal bovine serum-containing RPMI1640 medium (manufactured by Fujifilm Wako Pure Chemical Corporation.). The cell suspension was seeded into each well of a 384-well U bottom microplate and cultured in an incubator containing 5% CO2 gas at 37° C. for 1 day. The compounds obtained in the “Preparation of Compounds” section were used as test compounds and were dissolved in DMSO, respectively, and each test compound was diluted with DMSO to give a concentration 500 times the final concentration. The resultant solution of the test compound in DMSO was diluted with the medium used for suspending cells and added to each well of the cell-culture plate to give a DMSO final concentration of 0.2%, followed by culture in an incubator containing 5% CO2 gas at 37° C. for another 3 days. The cell count after 3-day culture in the presence of the test compound was measured using CellTiter-Glo 3D Reagent (manufactured by Promega Corporation). All wells were added with CellTiter-Glo 3D Reagent and mixed for 10 minutes. 30 minutes after mixing, luminescence was measured by a plate reader. The growth inhibition rate was calculated from the following equation, and the concentration of the test compound at which 50/o inhibition was achieved (IC50 (nM)) was determined. The following tables show the results.
[formula] • T: the emission intensity in a well into which a test compound was added. • C: the emission intensity in a well into which a test compound was not added.
A general note: ATP-based viability assays read luminescence as a measure of living cells.

As a reminder, the IC50 is the point on the concentration scale where inhibition reaches its midpoint. As for `Cn1cnc2cc(-c3cccn4c(C(=O)c5cc(F)c(NC(=O)/C=C/CNC6(C)CCOCC6)c(F)c5)ccc34)c(C(F)(F)F)cc21` [Example 11, (E)-N-(2,6-difluoro-4-(8-(1-methyl-6-(trifluoromethyl)-1H-benzo[d]imidazol-5-yl)indolizine-3-carbonyl)phenyl)-4-((4-methyltetrahydro-2H-pyran-4-yl)amino)but-2-enamide], the binding rate result in experiment [1] was “A (A binding rate of 80% or more is rated “A”)”. Also, the IC50 in experiment [2] was determined as 21 nM; in the experiment on MIA PaCa-2 cells (Homo sapiens, MIA PaCa-2, 72 h) it was 68 nM.
With `COc1cc2c(ncn2C)c(Cl)c1-c1cccn2c(C(=O)c3cc(F)c(NC(=O)/C=C/CN[C@H]4CC[C@H](OC)CC4)c(F)c3)ccc12` (single isomer, unassigned) [Example 41-2, (E)-N-(4-(8-(4-chloro-6-methoxy-1-methyl-1H-benzo[d]imidazol-5-yl)indolizine-3-carbonyl)-2,6-difluorophenyl)-4-(((1r,4r)-4-methoxycyclohexyl)amino)but-2-enamide], the binding rate result in experiment [1] is “A (A binding rate of 80% or more is rated “A”)”. For the same molecule, the values for the IC50 (in experiment [2]; in the experiment on MIA PaCa-2 cells) were 74 nM and 50 nM, respectively.
Turning to `CO[C@H]1CC[C@H](NC/C=C/C(=O)Nc2c(F)cc(C(=O)c3ccc4c(-c5c(Cl)cc6c(ncn6C)c5Cl)cccn34)cc2F)CC1` (single isomer, unassigned) [Example 15-1, (E)-N-(4-(8-(4,6-dichloro-1-methyl-1H-benzo[d]imidazol-5-yl)indolizine-3-carbonyl)-2,6-difluorophenyl)-4-(((1r,4r)-4-methoxycyclohexyl)amino)but-2-enamide], the binding rate entry in experiment [1] is reported as “A (A binding rate of 80% or more is rated “A”)”. Moreover, the IC50 came to 42 nM in experiment [2] and 46 nM in the experiment with MIA PaCa-2 cells.
For the molecule `Cc1cc2c(ncn2C)c(C)c1-c1cccn2c(C(=O)c3cc(F)c(NC(=O)/C=C/CNC(C)(C)C)c(F)c3)ccc12` [Example 29, (E)-4-(tert-butylamino)-N-(2,6-difluoro-4-(8-(1,4,6-trimethyl-1H-benzo[d]imidazol-5-vi)indolizine-3-carbonyl)phenyl)but-2-enamide], the binding rate result in experiment [1] is recorded as “A (A binding rate of 80% or more is rated “A”)”. The IC50 came out at 90 nM in experiment [2] and 120 nM with MIA PaCa-2 cells (Homo sapiens, MIA PaCa-2, 72 h).
In the same order, the values of `CO[C@H]1CC[C@H](NC/C=C/C(=O)Nc2c(F)cc(C(=O)c3c(C)nc4c(-c5cc6nc(C)n(C)c6cc5C(F)(F)F)cccn34)cc2F)CC1` [Example 51, (E)-N-(4-(8-(1,2-dimethyl-6-(trifluoromethyl)-1H-benzo[d]imidazol-5-yl)-2-methylimidazo[1,2-a]pyridine-3-carbonyl)-2,6-difluorophenyl)-4-(((1r,4r)-4-methoxycyclohexyl)amino)but-2-enamide] are “A (A binding rate of 80% or more is rated “A”)”, 57 nM and 120 nM.
Turning to `Cc1nc2cc(-c3cccn4c(C(=O)c5cc(F)c(NC(=O)/C=C/CN[C@H]6CCOC6)c(F)c5)ccc34)c(C(F)(F)F)cc2n1C` [Example 92], in experiment [1], the binding rate entry was “A (A binding rate of 80% or more is rated “A”)”. Also, the IC50 in experiment [2] amounted to 80 nM; with MIA PaCa-2 cells (Homo sapiens, MIA PaCa-2, 72 h), 120 nM.
With `C#Cc1cc(C(=O)c2cc(F)c(NC(=O)/C=C/CN[C@H]3CC[C@H](OC)CC3)c(F)c2)n2cccc(-c3c(C)cc4c(nc(C)n4C)c3Cl)c12` [Example 100], the binding rate result in experiment [1] is reported as “A (A binding rate of 80% or more is rated “A”)”. Besides, the IC50 was found to be 71 nM in experiment [2] and 96 nM with MIA PaCa-2 cells (Homo sapiens, MIA PaCa-2, 72 h).
In the case of `Cc1nc2cc(-c3cccn4c(C(=O)c5cc(F)c(NC(=O)/C=C/CNC6CCCCC6CO)c(F)c5)ccc34)c(C(F)(F)F)cc2n1C` (centres unmarked) [Example 65, (E)-N-(4-(8-(1,2-dimethyl-6-(trifluoromethyl)-1H-benzo[d]imidazol-5-yl)indolizine-3-carbonyl)-2,6-difluorophenyl)-4-((2-(hydroxymethyl)cyclohexyl)amino)but-2-enamide], the binding rate result in experiment [1] is given as “A (A binding rate of 80% or more is rated “A”)”. The IC50 in experiment [2] was 76 nM; in the experiment with MIA PaCa-2 cells (Homo sapiens, MIA PaCa-2, 72 h) it was 190 nM.
Turning to `CCc1nc2c(-c3c(C(F)(F)F)cc4c(nc(C)n4C)c3OC)cccn2c1C(=O)c1cc(F)c(NC(=O)/C=C/CN[C@H]2CC[C@H](OC)CC2)c(F)c1` (single isomer, unassigned) [Example 102-2, (E)-N-(4-(2-ethyl-8-(4-methoxy-1,2-dimethyl-6-(trifluoromethyl)-1H-benzo[d]imidazol-5-yl)imidazo[1,2-a]pyridine-3-carbonyl)-2,6-difluorophenyl)-4-(((1r,4r)-4-methoxycyclohexyl)amino)but-2-enamide], the binding rate result in experiment [1] is “C (a binding rate of 40% or more and less than 60% is rated “C”)”. Moreover, the IC50 in experiment [2] is 2440 nM; with MIA PaCa-2 cells it was 1460 nM.
As for `COc1c(-c2cc(F)cn3c(C(=O)c4cc(F)c(NC(=O)/C=C/CNC5(C)CC5)c(F)c4)cnc23)c(C(F)(F)F)cc2c1nc(C)n2C` (single isomer, unassigned) [Example 112-1, (E)-N-(2,6-difluoro-4-(6-fluoro-8-(4-methoxy-1,2-dimethyl-6-(trifluoromethyl)-1H-benzo[d]imidazol-5-yl)imidazo[1,2-a]pyridine-3-carbonyl)phenyl)-4-((1-methylcyclopropyl)amino)but-2-enamide], the IC50 was determined as 20.2 nM in experiment [2] and 42.6 nM in the experiment on MIA PaCa-2 cells.
